Laboratory results published in ChEMBL document CHEMBL1201862, “PubChem BioAssay data set” (2004).
Several values for one entry are separate records, joined by “and”; a condition that tells them apart may be missing. Identical values can stand only once. Activity calls are given as the source filed them.

How the values were obtained:
[1] = NIH3T3 cell viability loss – ATP luminescence, mouse fibroblasts, counter-screen, dose response (AID 2010); assay type: functional, cell-based;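 further: cells exposed to compound for about 90 hours before reading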
[2] = Trypanosoma cruzi growth suppression in host cells – NIH3T3 host cells, beta-gal luminescence, confirmation (AID 2044); assay type: functional, cell-based;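 further: intracellular parasites grown in NIH/3T3 mouse fibroblasts as host cells; luminescent beta-galactosidase reporter signal from transgenic T. cruzi replicating inside host cells; inhibitors lower the luminescence signal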
[3] = target: T1, Ubiquitin-conjugating enzyme E2 N (Homo sapiens, UniProt P61088); assay type: functional;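 further: Dose-response confirmation in a TR-FRET assay detecting UBC13-driven polyubiquitin chain formation, inhibition measured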
T1 sequence (P61088 whole entry): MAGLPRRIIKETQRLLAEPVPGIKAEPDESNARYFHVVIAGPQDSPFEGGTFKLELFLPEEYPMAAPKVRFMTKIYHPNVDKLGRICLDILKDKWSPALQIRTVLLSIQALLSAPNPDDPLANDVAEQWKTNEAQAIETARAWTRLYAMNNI

[4] = target: E3 ubiquitin-protein ligase Mdm2/Protein Mdm4 (Homo sapiens, UniProt O15151+Q00987); test: disruption of Mdm2/MdmX protein binding – luminescence detection, dose response (AID 504593); assay type: functional
[5] = target: T2, Microphthalmia-associated transcription factor (Homo sapiens, UniProt O75030); test: reducers of TRPM1 reporter luminescence, concentration series – cell-based, SK-MEL-5, cherry-picked, set 3, MITF inhibitor project, dose response (AID 493073); assay type: functional;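 further: SK-MEL-5 melanoma cells with luciferase driven by the MITF target TRPM1 promoter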
T2 sequence (O75030 whole entry): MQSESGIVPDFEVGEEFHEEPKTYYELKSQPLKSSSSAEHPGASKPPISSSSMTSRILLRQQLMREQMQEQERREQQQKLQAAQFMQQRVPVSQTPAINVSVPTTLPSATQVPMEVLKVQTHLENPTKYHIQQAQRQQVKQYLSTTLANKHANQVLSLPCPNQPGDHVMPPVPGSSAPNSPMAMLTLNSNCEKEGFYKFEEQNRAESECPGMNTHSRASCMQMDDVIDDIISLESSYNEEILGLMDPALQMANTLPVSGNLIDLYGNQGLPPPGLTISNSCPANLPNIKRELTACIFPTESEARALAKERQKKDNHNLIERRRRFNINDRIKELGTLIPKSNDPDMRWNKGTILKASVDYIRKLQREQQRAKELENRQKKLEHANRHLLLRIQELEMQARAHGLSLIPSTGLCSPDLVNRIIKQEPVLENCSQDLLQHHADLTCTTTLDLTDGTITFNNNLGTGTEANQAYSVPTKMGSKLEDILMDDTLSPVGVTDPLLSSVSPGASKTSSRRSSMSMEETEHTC

[6] = THP-1 cell cytotoxicity, dose response, cytotoxicity control for non-replicating M. tuberculosis project (AID 489025); assay type: functional
Streptococcus = test: GAS UMAA2166 growth inhibition – luminescence, BacTiterGlo, counter-screen for streptokinase expression inhibitor project, dose response (AID 1915); assay type: functional, organism-based;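 further: potency for reduction of bacterial viability or growth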
Protein Wnt-3a = Protein Wnt-3a (Mus musculus, UniProt P27467); test: antagonism of Wnt3a pathway luciferase reporter – Wnt-LIGHT cells, luminescence, selectivity assay for Gli-SUFU antagonist project, dose response (AID 651570); assay type: functional; conditions: read-out: IC50_Mean;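 further: Wnt-LIGHT reporter cells stimulated with conditioned medium from Wnt3a-producing cells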
[7] = tested on: Streptococcus sp. 'group A'; test: Streptococcus pyogenes SK(-)GAS viability under kanamycin – luminescence, BacTiterGlo, confirmation, counter-screen for streptokinase expression inhibitor project, dose response (AID 1900); assay type: functional, organism-based
[8] = Vero E6 cell cytotoxicity, dose response, cytotoxicity control for non-replicating M. tuberculosis project, secondary assay (AID 492998); assay type: functional, VeroE6; conditions: Vero C1008
cells = assay type: functional
[9] = HepG2 cell cytotoxicity, dose response, cytotoxicity control for non-replicating M. tuberculosis project (AID 489018); assay type: functional; conditions: Mycobacterium tuberculosis
[10] = target: G-protein coupled receptor 55 (Homo sapiens, UniProt Q9Y2T6); test: inhibition of LPI-stimulated GPR55 beta-arrestin translocation – imaging, U2OS, beta-arrestin-GFP, LPI agonist, primary screen (AID 2013); assay type: functional;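 further: antagonist potency measured as reduced agonist-driven arrestin aggregation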
Trypanosoma cruzi = test: anti-trypanosomal activity in host cells – cell-based, plate reader, dry powder, set 3, dose response (AID 493197); assay type: functional
[11] = NIH/3T3 cell viability loss – mouse embryonic fibroblasts, dry powder, set 2, cytotoxicity control, dose response (AID 493247); assay type: functional, cell-based; conditions: Fibroblast
HEK293 [12] = test: cells; assay type: functional, cell-based; conditions: Homo sapiens
HEK293 [13] = test: cells; assay type: functional, cell-based; conditions: Homo sapiens; remark: listed apart in the source
HEK293 [14] = test: NOD2 signaling inhibitors in MDP-stimulated cells, cell-based, uHTS, luminescence (AID 2001); assay type: functional; conditions: Homo sapiens
HEK293 [15] = test: cells; assay type: functional, cell-based; conditions: Homo sapiens; remark: listed apart in the source
HEK293 [16] = test: inhibition of NOD1-driven NF-kB reporter – cell-based, luminescence, uHTS, primary screen (AID 1578); assay type: functional; conditions: Homo sapiens
[17] = target: Nucleotide-binding oligomerization domain-containing protein 2 (Homo sapiens, UniProt Q9HC29); test: inhibition of NOD2-driven NF-kB reporter – cell-based, luminescence, uHTS, HEK293 (AID 1566); assay type: functional
[18] = target: T3, Type-1 angiotensin II receptor (Homo sapiens, UniProt P30556); test: agonist activity at AGTR1 – cell-based, uHTS hits, selectivity assay for APJ receptor agonist project, dose response (AID 488865); assay type: functional;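 further: beta-arrestin recruitment to AT1 measured by enzyme fragment complementation luminescence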
T3 sequence (P30556 whole entry): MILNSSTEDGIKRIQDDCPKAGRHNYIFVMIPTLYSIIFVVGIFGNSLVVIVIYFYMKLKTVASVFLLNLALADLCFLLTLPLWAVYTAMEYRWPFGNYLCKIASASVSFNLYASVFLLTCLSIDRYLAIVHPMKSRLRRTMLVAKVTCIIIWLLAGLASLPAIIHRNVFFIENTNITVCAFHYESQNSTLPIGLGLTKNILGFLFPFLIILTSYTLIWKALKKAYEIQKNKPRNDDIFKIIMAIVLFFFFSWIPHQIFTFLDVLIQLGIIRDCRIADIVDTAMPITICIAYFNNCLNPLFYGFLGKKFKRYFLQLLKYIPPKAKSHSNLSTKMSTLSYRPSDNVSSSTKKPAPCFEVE

[19] = target: T4, Tyrosine-protein phosphatase non-receptor type 7 (Homo sapiens, UniProt P35236); test: SAR analysis of chemical inhibitors of HePTP using a Fluorescent assay - Set 2. [Related pubchem assays (depositor defined):AID1059, AID1077, AID1661, AID2085, AID521]; assay type: functional
T4 sequence (P35236 whole entry): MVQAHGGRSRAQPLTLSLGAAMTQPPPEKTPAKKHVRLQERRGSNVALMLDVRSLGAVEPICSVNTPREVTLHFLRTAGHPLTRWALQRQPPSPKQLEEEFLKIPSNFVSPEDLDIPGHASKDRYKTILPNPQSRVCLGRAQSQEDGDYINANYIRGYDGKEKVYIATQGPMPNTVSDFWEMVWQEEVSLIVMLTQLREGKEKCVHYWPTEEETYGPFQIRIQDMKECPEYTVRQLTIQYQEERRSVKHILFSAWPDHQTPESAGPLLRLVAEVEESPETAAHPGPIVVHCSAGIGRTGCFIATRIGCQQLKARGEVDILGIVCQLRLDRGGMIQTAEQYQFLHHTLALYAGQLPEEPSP

[20] = target: T4, Tyrosine-protein phosphatase non-receptor type 7; test: redox-active compounds inhibiting HePTP phosphatase – biochemical, fluorescence, mechanism study (AID 2068); assay type: functional
[21] = target: T5, Dual specificity protein phosphatase 3 (Homo sapiens, UniProt P51452); test: SAR VHR1 Fluorescent Assay for In Vitro dose response studies Set 2. [Related pubchem assays (depositor defined):AID1654, AID1661, AID1878]; assay type: functional
[22] = target: T6, Dual specificity protein phosphatase 6 (Rattus norvegicus, UniProt Q64346); assay type: functional
T6 sequence (Q64346 whole entry): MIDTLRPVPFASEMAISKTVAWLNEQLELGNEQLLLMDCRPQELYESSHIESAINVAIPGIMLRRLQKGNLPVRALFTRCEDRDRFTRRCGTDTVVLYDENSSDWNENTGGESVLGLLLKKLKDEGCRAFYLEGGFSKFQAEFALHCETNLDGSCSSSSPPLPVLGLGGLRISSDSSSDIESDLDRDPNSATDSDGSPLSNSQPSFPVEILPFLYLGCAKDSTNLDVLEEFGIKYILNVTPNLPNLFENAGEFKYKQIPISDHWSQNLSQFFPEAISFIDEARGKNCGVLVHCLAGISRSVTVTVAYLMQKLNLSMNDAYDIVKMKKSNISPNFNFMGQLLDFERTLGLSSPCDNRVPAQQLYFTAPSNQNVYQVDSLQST

[23] = target: T5, Dual specificity protein phosphatase 3; test: SAR VHR1 absorbance Assay for In Vitro dose response studies. [Related pubchem assays (depositor defined):AID1654, AID1661, AID1878, AID1992, AID2004]
[24] = target: T6, Dual specificity protein phosphatase 6; test: SAR analysis of inhibitors of MKP-3 - Set 2. [Related pubchem assays (depositor defined):AID1055, AID1661, AID425, AID553, AID566]; assay type: functional
[25] = target: T5, Dual specificity protein phosphatase 3; test: SAR VHR1 Fluorescent Assay for In Vitro dose response studies. [Related pubchem assays (depositor defined):AID1654, AID1661, AID1878, AID1992, AID2004, AID2070, AID2085]; assay type: functional
[26] = target: Polyadenylate-binding protein 1 (Homo sapiens, UniProt P11940); test: PABP inhibition in translation initiation, SAR follow-up (AID 435018); assay type: functional
[27] = target: Eukaryotic translation initiation factor 4H (Homo sapiens, UniProt Q15056); test: inhibitors of translation initiation factor eIF4H – SAR follow-up (AID 435011); assay type: functional
[28] = target: Voltage-dependent T-type calcium channel subunit alpha-1H (Homo sapiens, UniProt O95180); test: human CACNA1H calcium influx blockade – cell-based, synthetic library set 1, calcium flux (AID 493022); assay type: functional
[29] = target: T7, Alkaline phosphatase, tissue-nonspecific isozyme (Homo sapiens, UniProt P05186); test: potency against alkaline phosphatase TNAP – biochemical, luminescent, dose response, SAR follow-up (AID 1056)
T7 sequence (P05186 whole entry): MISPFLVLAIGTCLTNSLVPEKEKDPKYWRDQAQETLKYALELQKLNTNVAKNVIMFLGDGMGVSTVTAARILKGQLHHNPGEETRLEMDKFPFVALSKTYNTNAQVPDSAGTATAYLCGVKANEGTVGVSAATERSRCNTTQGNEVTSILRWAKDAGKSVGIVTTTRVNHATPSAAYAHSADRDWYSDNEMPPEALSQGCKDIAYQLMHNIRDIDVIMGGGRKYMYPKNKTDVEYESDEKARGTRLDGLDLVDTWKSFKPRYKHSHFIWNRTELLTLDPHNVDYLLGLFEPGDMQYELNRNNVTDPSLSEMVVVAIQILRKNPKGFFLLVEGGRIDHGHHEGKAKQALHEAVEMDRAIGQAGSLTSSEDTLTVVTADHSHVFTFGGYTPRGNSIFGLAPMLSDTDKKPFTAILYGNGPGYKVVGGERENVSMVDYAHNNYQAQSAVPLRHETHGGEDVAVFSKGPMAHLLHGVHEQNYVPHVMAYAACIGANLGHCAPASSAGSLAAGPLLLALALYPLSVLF

[30] = target: T7, Alkaline phosphatase, tissue-nonspecific isozyme; test: SAR assay for compounds inhibiting TNAP in the absence of phosphate acceptor performed in a luminescent assay. [Related pubchem assays (depositor defined):AID1548, AID1659, AID518]
[31] = target: Glyceraldehyde-3-phosphate dehydrogenase (Homo sapiens, UniProt P04406)
[32] = target: Alkaline phosphatase, placental type (Homo sapiens, UniProt P05187); test: human placental alkaline phosphatase inhibition – biochemical, luminescence, confirmation (AID 1512); assay type: functional
Sequence of Alkaline phosphatase, placental type (P05187 whole entry): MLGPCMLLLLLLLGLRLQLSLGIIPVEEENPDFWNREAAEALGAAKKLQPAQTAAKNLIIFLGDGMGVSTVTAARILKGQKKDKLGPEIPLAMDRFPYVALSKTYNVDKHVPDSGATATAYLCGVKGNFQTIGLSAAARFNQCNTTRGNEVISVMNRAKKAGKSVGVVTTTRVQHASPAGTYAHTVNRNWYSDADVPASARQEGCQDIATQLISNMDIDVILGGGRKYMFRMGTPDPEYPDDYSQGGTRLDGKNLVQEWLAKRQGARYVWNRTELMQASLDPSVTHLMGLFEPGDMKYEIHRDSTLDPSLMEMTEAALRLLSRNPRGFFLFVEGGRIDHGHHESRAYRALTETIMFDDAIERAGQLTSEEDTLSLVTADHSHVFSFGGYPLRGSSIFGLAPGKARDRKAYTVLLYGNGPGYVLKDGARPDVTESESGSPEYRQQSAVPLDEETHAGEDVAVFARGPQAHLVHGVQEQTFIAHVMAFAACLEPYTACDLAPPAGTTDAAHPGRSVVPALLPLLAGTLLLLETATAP

T5 sequence (P51452 whole entry): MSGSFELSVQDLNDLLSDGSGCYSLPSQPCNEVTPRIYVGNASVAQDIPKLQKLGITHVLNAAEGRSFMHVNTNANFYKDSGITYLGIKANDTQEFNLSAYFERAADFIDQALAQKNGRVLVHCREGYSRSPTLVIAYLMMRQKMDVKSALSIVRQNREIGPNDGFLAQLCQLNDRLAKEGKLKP
Sequence of G-protein coupled receptor 55 (Q9Y2T6 whole entry): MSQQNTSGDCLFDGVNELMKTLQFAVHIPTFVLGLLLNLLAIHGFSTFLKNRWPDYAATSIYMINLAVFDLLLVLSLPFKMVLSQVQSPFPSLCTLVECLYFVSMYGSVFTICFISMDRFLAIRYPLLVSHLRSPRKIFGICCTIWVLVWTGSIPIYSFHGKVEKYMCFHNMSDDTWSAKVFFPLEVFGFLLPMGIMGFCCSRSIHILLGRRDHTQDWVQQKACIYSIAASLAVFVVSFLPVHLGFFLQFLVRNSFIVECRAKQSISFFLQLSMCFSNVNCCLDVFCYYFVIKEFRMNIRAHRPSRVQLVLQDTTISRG
Sequence of Protein Wnt-3a (P27467 whole entry): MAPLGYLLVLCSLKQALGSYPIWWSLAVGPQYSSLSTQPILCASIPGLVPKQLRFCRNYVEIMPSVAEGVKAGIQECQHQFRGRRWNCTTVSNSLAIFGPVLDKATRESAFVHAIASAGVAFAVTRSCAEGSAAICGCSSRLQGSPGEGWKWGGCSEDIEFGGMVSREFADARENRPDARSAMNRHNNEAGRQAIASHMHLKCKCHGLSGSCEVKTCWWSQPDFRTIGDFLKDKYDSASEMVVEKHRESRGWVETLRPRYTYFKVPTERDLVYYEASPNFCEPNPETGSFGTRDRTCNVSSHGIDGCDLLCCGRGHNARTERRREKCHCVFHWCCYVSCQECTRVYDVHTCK
Sequence of Voltage-dependent T-type calcium channel subunit alpha-1H (O95180 whole entry): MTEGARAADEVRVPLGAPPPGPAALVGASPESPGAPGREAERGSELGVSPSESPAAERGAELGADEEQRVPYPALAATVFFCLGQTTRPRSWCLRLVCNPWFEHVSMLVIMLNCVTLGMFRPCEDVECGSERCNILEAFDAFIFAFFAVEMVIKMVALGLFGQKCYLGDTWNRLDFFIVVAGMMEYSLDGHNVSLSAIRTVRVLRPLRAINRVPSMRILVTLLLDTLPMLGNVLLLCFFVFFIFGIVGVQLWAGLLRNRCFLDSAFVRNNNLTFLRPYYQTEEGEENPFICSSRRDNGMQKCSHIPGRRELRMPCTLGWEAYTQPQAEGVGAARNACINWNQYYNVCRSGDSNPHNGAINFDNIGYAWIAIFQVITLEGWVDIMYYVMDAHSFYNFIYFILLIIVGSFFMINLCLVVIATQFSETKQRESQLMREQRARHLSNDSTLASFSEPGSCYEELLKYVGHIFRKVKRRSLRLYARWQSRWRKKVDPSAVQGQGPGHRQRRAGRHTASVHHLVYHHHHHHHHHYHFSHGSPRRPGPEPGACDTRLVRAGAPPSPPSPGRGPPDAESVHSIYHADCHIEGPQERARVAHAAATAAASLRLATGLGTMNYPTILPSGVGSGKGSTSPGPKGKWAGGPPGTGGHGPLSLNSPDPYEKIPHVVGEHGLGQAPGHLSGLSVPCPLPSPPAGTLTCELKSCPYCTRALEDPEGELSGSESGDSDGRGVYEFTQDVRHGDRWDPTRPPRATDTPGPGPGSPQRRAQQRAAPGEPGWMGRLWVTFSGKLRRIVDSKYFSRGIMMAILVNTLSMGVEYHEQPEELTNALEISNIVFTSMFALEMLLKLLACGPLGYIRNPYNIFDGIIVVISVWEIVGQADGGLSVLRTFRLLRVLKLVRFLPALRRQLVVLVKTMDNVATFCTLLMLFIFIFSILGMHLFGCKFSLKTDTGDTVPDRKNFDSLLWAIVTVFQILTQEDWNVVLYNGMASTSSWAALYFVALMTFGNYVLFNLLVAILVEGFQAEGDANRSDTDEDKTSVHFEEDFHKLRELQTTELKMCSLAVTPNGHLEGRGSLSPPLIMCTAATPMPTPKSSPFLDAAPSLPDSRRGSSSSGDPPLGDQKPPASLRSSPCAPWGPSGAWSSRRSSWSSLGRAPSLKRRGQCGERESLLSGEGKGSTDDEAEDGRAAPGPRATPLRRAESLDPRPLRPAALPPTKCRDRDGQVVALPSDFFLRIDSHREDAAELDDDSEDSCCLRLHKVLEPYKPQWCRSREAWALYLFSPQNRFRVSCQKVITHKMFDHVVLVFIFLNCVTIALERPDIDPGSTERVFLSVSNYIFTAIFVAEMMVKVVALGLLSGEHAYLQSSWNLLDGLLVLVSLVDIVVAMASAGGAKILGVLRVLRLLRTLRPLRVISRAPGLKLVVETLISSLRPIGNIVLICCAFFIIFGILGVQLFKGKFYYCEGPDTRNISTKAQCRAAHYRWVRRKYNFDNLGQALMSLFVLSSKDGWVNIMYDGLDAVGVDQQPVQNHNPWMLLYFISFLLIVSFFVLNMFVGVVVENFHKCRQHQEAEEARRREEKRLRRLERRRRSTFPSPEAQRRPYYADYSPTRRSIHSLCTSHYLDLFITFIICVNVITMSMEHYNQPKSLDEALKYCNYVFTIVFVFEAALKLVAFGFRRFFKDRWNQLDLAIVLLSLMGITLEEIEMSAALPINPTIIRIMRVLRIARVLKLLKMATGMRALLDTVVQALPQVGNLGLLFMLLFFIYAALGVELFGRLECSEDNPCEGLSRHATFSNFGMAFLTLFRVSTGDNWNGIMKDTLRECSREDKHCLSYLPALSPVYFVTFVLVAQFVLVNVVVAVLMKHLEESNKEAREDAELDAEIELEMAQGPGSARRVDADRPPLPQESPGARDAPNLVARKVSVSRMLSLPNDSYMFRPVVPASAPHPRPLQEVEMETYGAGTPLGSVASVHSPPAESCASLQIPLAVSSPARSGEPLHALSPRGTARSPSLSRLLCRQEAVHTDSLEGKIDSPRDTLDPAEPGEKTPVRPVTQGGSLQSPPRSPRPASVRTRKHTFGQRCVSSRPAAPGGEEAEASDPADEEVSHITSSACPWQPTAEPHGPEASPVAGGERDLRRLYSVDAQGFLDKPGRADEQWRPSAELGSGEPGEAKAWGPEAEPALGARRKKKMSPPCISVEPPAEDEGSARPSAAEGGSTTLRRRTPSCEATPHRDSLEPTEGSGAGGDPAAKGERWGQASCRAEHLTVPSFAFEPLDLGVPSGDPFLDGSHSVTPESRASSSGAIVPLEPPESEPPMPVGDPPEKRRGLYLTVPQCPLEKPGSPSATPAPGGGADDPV
Sequence of Nucleotide-binding oligomerization domain-containing protein 2 (Q9HC29 whole entry, the tested form may be a part): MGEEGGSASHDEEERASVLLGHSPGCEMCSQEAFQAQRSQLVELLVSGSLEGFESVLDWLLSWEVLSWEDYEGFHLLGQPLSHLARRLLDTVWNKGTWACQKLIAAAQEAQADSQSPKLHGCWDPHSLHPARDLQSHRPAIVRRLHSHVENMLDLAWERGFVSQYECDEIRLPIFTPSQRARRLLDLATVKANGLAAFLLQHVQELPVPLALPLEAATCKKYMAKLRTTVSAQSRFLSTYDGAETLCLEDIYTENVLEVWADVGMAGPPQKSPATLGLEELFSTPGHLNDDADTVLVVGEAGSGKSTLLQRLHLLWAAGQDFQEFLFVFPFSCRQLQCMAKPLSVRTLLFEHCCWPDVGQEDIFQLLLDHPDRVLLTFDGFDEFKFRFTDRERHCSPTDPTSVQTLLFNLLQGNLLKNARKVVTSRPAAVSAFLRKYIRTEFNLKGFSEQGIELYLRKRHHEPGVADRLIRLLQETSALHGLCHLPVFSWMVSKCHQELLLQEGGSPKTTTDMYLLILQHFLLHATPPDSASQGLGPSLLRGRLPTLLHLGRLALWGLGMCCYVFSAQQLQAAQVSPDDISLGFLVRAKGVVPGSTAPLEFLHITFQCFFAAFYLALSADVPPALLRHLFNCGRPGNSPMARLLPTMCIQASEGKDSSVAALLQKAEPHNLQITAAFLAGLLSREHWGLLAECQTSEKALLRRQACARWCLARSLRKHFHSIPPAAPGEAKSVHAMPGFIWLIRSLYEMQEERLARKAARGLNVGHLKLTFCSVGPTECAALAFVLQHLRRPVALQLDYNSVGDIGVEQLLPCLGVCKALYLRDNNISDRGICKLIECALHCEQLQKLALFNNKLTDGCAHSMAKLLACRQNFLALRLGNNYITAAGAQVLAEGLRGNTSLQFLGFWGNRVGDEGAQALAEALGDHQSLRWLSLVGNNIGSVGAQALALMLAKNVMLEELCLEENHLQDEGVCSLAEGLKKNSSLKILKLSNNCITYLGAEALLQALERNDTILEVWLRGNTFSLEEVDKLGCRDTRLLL

SMILES: COc1ccc(-c2cc3c(=O)n(CC(=O)NCCCN4CCC(N5CCCCC5)CC4)nc(C)n3n2)cc1
- EC50 [1]: > 60 µM (not active)
- EC50 [2]: 3.09 µM (active)
- IC50 [3]: > 20 µM (inactive)
- IC50 [4]: 9.38 µM (active)

SMILES: CCCCCCn1c(=O)c(C(=O)Nc2cnccn2)c(O)c2ccccc21
- AC50 [5]: 3.68 µM (active)
- CC50 [6]: 3.51 µM (active)
- EC50 (Streptococcus): 13 µM (active)
- IC50 (Protein Wnt-3a): 3.55 µM (active)
- EC50 [7]: 3 µM (active)
- CC50 [8]: 7.38 µM (active)
- IC50 (cells): 5.03 µM (active)
- CC50 [9]: 10.2 µM (active)

SMILES: Cc1ccccc1CSCCNC(=O)c1ccc(N(C)S(=O)(=O)c2ccccc2)cc1
- IC50 [10]: 3 µM (active)

SMILES: COc1ccc(CN2CCCC(C(=O)N3CCc4ccccc4C3)C2)cc1OC (stereo not drawn)
- AC50 (Trypanosoma cruzi): 3.54 µM (active)
- AC50 [11]: 41.7 µM (active)

SMILES: C=CCn1c(O)c(N=NC(=S)Nc2cccc(OC)c2)c2ccccc21
- IC50 (HEK293 [12]): > 20 µM (inactive)
- EC50 [1]: 4.49 µM (active)
- EC50 [2]: 0.589 µM (active)
- IC50 (HEK293 [13]): 3.41 µM (active)
- IC50 (HEK293 [14]): 1.76 µM (active)
- IC50 (HEK293 [15]): > 20 µM (inactive)
- EC50 (HEK293 [16]): > 20 µM (inactive)
- EC50 [17]: > 20 µM (inactive)

SMILES: COc1cc2c(cc1NC(=O)c1cc(-c3ccncc3)nc3ccc(C)cc13)oc1ccccc12
- EC50 [18]: > 100 µM (inactive)

SMILES: CCOc1ccc(-n2c(N)c(C(=O)N3CCN(C)CC3)sc2=S)cc1
- IC50 [19]: > 100 µM (inactive)
- IC50 [20]: > 100 µM (inactive)
- IC50 [21]: > 100 µM (inactive)
- IC50 [22]: > 99 µM (inactive)
- IC50 [23]: > 100 µM (inactive)
- IC50 [24]: > 100 µM (inactive)
- IC50 [25]: > 99 µM (inactive)

SMILES: O=C(Nc1ccccc1)C1CCN(C(=O)c2cccs2)CC1
- IC50 [26]: 7.49 µM (active)
- IC50 [27]: 21.4 µM (active)

SMILES: Cc1ccc(-c2nnc(NC(=O)C(C)(C)Oc3ccccc3)o2)cc1C
- EC50 [28]: 2.1 µM (active)

SMILES: COc1ccc(C)cc1S(=O)(=O)Nc1cccnc1
- IC50 [29]: 2.34 µM (active) and 1.6 µM (active)
- IC50 [30]: 16.6 µM (active) and 16.4 µM (active)
- IC50 [31]: > 100 µM (not active)
- IC50 [32]: > 100 µM (inactive)
